The record followed here is patent US6858638B2, “Substituted indazoles, compositions containing them, method of production and use” (Aventis Pharma S.A., priority 2002, dated 2005).

In one data set the target is T1, human KDR enzyme (Homo sapiens, UniProt P35968).
T1 construct: The cytoplasmic domain of the human KDR enzyme; GST; made in house; host or cells: SF21 insect cells (baculovirus)
The data set can be described thus: KDR substrate (PLCγ) phosphorylation, scintillation assay. Particulars: 10 μM; read-out: KDR % inhib at 10 μM. Type of data set: biochemical. The essentials: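 GST-fused human KDR cytoplasmic domain from SF21 cells (about 60% pure, 100 ng) phosphorylated 2 μg of GST-PLCγ SH2-SH3 fragment. The trigger solution held γ33P-ATP with 2 μM cold ATP, in MOPS buffer pH 7.2 with Mg2+, Mn2+, vanadate and NaF. Reactions ran 1 h at 37 °C, were stopped with EDTA and counted by scintillation; results are % inhibition versus the no-compound control.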

For another data set, the target named is T2, human Tie2 (Homo sapiens, UniProt Q02763).
T2 construct: amino acids of the intracellular domain 776-1124; made in house; host or cells: baculovirus expression system (vector pFastBacGT)
T2 sequence (Q02763 776-1124): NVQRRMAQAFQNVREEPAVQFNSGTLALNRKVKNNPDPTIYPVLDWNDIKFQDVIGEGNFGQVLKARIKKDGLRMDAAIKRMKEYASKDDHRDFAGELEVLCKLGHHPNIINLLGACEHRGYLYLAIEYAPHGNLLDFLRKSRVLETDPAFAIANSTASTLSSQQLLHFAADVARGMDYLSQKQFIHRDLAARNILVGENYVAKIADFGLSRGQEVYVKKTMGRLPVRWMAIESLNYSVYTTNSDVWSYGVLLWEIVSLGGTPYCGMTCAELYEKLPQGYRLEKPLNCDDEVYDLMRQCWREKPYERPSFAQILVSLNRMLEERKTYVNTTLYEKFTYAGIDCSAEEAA
The data set is described as follows: Tie2 phosphorylation of PLC, FlashPlate radioactivity assay. Type of data set: biochemical. Particulars: read-out: TIE2 % inhib at 10 μM. How it is done: The coding sequence of human Tie2 corresponding to the amino acids of the intracellular domain 776-1124 was generated by PCR using the cDNA isolated from human placenta as model. This sequence was introduced into a baculovirus expression vector pFastBacGT in the form of a GST fusion protein.
The inhibitory effect of the molecules is determined in an assay of phosphorylation of PLC by Tie2 in the presence of GST-Tie2 purified to approximately 80% homogeneity. The substrate is composed of the SH2-SH3 fragments of PLC exprressed in the form of a GST fusion protein.
The kinase activity of Tie2 is measured in a 20 mM MOPS buffer, pH 7.2, containing 10 mM MgCl2, 10 mM MnCl2, 1 mM DTT and 10 mM of glycerophosphate. A reaction mixture composed of 70 μl of kinase buffer containing 100 ng of GST-Tie2 enzyme per well is placed in a FlashPlate 96-well plate kept on ice. 10 μl of the test molecule diluted in DMSO at a maximum concentration of 10% are then added. For a given concentration, each measurement is carried out in quadruplicate. The reaction is initiated by adding 20 μl of solution containing 2 μg of GST-PLC, 2 μM of cold ATP and 1 μCi of ^33P[ATP]. After incubation for 1 hour at 37° C., the reaction is stopped by adding 1 volume (100 μl) of 200 mM EDTA. After removing the incubation buffer, the wells are washed three times with 300 μl of PBS. The radioactivity is measured on a Wallac MicroBeta 1450.
The inhibition of the Tie2 activity is calculated and expressed as percentage inhibition compared to the control activity determined in the absence of compound.

A further data set relates to c-Src protein. The data set can be described thus: Src kinase phosphorylation of biotinylated cdc2 substrate, fluorescence (DELFIA). Type of data set: biochemical, human. The gist of the method: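 Recombinant human c-Src (SH3, SH2 and catalytic domains; baculovirus) phosphorylates biotinylated cdc2 substrate in 50 mM Tris, 10 mM MgCl2 with 10 μM ATP, 60 min at 30° C. Product captured on streptavidin and detected by Europium-anti-phosphotyrosine fluorescence (DELFIA). Reported as % inhibition of no-compound control.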

T1 sequence (P35968 786-1356 limits assumed): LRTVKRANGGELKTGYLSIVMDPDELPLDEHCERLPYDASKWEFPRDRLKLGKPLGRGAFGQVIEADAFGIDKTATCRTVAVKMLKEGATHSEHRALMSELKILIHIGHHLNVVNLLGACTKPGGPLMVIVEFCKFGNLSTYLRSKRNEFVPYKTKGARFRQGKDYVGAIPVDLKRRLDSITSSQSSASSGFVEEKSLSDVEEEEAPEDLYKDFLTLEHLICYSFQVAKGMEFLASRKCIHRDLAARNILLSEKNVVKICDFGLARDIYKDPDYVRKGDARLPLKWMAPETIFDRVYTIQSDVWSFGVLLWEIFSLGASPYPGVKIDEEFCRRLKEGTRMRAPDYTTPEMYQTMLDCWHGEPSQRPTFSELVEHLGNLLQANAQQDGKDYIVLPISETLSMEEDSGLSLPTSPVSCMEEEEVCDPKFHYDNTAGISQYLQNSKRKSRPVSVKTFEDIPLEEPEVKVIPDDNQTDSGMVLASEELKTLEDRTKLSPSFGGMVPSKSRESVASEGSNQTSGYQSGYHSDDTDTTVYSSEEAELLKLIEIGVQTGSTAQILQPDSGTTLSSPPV

Turning to `CS(=O)(=O)c1ccccc1S(=O)(=O)Nc1ccc2[nH]nc(Cl)c2c1` [Example 1, N-(3-Chloro-1H-indazol-5-yl)-2-methylsulfonylbenzenesulfonamide], the figures for the inhibition at 10 µM at human KDR enzyme and at human Tie2 were 7% and 18%, respectively.
On to `O=S(=O)(Nc1ccc2[nH]nc(Cl)c2c1)c1cccc(F)c1` [Example 3, N-(3-Chloro-1H-indazol-5-yl)-3-fluorobenzenesulfonamide], for which the inhibition at 10 µM at human KDR enzyme came out at 22%; at human Tie2 it was 15%.
For orientation: melting point means the temperature, or range, at which the solid turns liquid. `O=S(=O)(Nc1ccc2[nH]nc(-c3ccccc3)c2c1)c1cccc(F)c1` [Example 6, 3-Fluoro-N-(3-phenyl-1H-indazol-5-yl)benzenesulfonamide]: the melting point turned out to be 200 °C. In the data set on c-Src protein, the “SRC % inhib at 10 μM” value is recorded as 55%. Besides, the inhibition at 10 µM on human KDR enzyme was determined as 85%. Moreover, on human Tie2, the inhibition at 10 µM came out at 74%.
The like results for `CS(=O)(=O)c1ccccc1S(=O)(=O)Nc1ccc2[nH]nc(-c3ccccc3)c2c1` [Example 7, 2-Methylsulfonyl-N-(3-phenyl-1H-indazol-5-yl)benzenesulfonamide] were, in that order, 223 °C, 89%, 70% and 86%.
Consider `O=S(=O)(Nc1ccc2[nH]nc(-c3ccccc3)c2c1)c1ccc(Cl)c(Cl)c1` [Example 8, 3,4-Dichloro-N-(3-phenyl-1H-indazol-5-yl)benzenesulfonamide], for which the melting point amounted to 216 °C. Besides, the inhibition at 10 µM on human KDR enzyme came out at 81%. In addition, on human Tie2, the inhibition at 10 µM stood at 56%.
As to `Cc1n[nH]c2ccc(NS(=O)(=O)c3cccc(F)c3)cc12` [Example 9, 3-Fluoro-N-(3-methyl-1H-indazol-5-yl)benzenesulfonamide], the melting point came out at 120 °C. Moreover, the inhibition at 10 µM at human KDR enzyme amounted to 18%. Besides, the inhibition at 10 µM on human Tie2 was determined as 29%.
Consider `Cc1n[nH]c2ccc(NS(=O)(=O)c3ccccc3S(C)(=O)=O)cc12` [Example 10, 2-Methylsulfonyl-N-(3-methyl-1H-indazol-5-yl)benzenesulfonamide], for which the inhibition at 10 µM turned out to be 20% at human KDR enzyme and 33% on human Tie2.
As to `CS(=O)(=O)c1ccccc1S(=O)(=O)Nc1ccc2[nH]ncc2c1` [Example 13, 2-Methylsulfonyl-N-(1H-indazol-5-yl)benzenesulfonamide], the melting point amounted to 245 °C. Moreover, the inhibition at 10 µM at human KDR enzyme was found to be 0%. Also, the inhibition at 10 µM at human Tie2 is 22%.
